According to patent publication US11337935B2, “Identification of stabilizers of multimeric proteins” (The Board of Trustees of the Leland Stanford Junior …, priority 2010, dated 2022):

Tests used:
TTR [1] = molecular target: T1, TTR (Homo sapiens (Human), UniProt P02766); test: Determination of IC50 using the FP assay (HTS format); type: binding; settings: read-out: IC50 (50% decrease in the FP signal); repurchased top 33 hits, 10-point duplicate dose-response
WT TTR = WT TTR (Homo sapiens (Human), UniProt P02766); test: Acid-mediated fibril formation assay for TTR amyloidogenesis (turbidity); settings: ligand 7.2 μM, TTR 3.6 μM, pH 4.4, 37° C., 72 h; no inhibitor = 100%
Description: The efficacy of each compound to inhibit TTR amyloidogenesis was determined by monitoring the turbidity of TTR aggregation at acidic pH, as described previously. […] The final 1 ml sample mixture was vortexed, then incubated at 37° C. for 72 hours, after which the sample was vortexed and the optical density was measured at 400 nm on a Beckman DU® 640 spectrophotometer. […] The optical density was also corrected for the absorption of all test compounds in the absence of TTR. […] The optical density (400 nm) was measured as described above at 0, 24, 48, 72, 96, and 120 hours. All assays were performed in triplicate and the average values obtained are presented.
TTR was preincubated with small molecules for 30 min at room temperature before amyloidosis was initiated (lowering pH to 4.4, incubation at 37° C.). […] The amyloidogenesis inhibition efficacy of each compound was determined by monitoring the turbidity of TTR (400 nm). The extent of TTR amyloidogenesis was quantitated at a fixed time point (72 h). All amyloid fibril formation data was normalized to TTR amyloidogenesis in the absence of inhibitor, assigned to be 100% fibril formation. […] The aggregation inhibition was monitored over 5 days using the acid-mediated fibril formation assay (compared to 3 days for the fixed time point described above) (FIG. 5B).

[2] = system: V122I TTR cytotoxicity in human AC16 cardiac cells; test: Inhibition of V122I TTR cytotoxicity; settings: V122I TTR and ligand 8 μM each, AC16, 24 h
Description: (§1) The human cardiac cell line AC16 was maintained in DMEM:F12 (1:1) supplemented with 10% FBS, 1 mM Hepes buffer, 2 mM L-glutamine, 100 units/mL penicillin and 100 μg/mL streptomycin. Two to 4-day-old cultures (˜70% confluent) were used for the experiments.
(§2) Recombinant WT TTR purified in the cold in HBSS (Mediatech, Manassas, Va.) was used as a cytotoxic insult to IMR-32 cells and the amyloidogenic V122I TTR was used as cytotoxic insult to cardiac AC16 cells. Candidate compounds (16 mM in DMSO) were diluted 1:1000 with WT TTR or V122I TTR (16 mM in HBSS, filter sterilized) or with HBSS only. The mixtures were vortexed and incubated for 24 h at 4° C. WT TTR or V122I TTR (16 mM in HBSS) containing the same amount of DMSO than TTR/candidate compound mixtures was prepared in parallel and incubated under the same conditions.
(§3) The neuroblastoma IMR-32 and the cardiac AC16 cells were seeded in black wall, clear bottom, tissue culture treated 96-well plates (Costar) at a density of 6,000 cells/well and 250 cells/well, respectively in Opti-mem supplemented with 5% FBS, 1 mM Hepes buffer, 2 mM L-glutamine, 100 units/mL penicillin and 100 μg/mL streptomycin, 0.05 mg/mL CaCl2 and incubated overnight at 37° C. The medium was then removed and replaced immediately by the TTR/compound or HBSS previously diluted 1:1 in Opti-mem supplemented with 0.8 mg/mL BSA, 2 mM Hepes buffer, 4 mM L-glutamine, 200 units/mL penicillin, 200 μg/mL streptomycin and 0.1 mg/mL CaCl2. The cells were incubated 24 h at 37° C. after which cell viability was measured.
(§4) Cell viability of the cells treated with TTR or TTR/candidate compound was evaluated by a resazurin reduction assay. Briefly, 10 μL/well of resazurin (500 mM, PBS) was added to each well and incubated for 2-3 h at 37° C. Viable cells reduce resazurin to the highly fluorescent resorufin dye, which is quantitated in a multiwell plate reader (Ex/Em 530/590 nm, Tecan Safire2, Austria). Cell viability was calculated as percentage of fluorescence relative to cells treated with vehicle only (100% viability) after subtraction of blank fluorescence (wells without cells). All experimental conditions were performed at least in six replicates. Averages and SEM corresponding to 2 independently performed experiments were calculated.
(§5) The compounds under study were pre-incubated with WT TTR or V122I TTR for 24 h at 4° C. at equimolar concentrations (8 μM) and added to IMR-32 cells or AC16 cells, respectively. Cell viability was measured after 24 h by a resazurin reduction assay. […] The percentage of viable cells was calculated relative to cells treated with vehicle only (cell culture media and DMSO)—which were assigned to be 100% viable.

[3] = system: WT TTR cytotoxicity in human IMR-32 neuroblastoma cells; test: Inhibition of WT TTR cytotoxicity; settings: WT TTR and ligand 8 μM each, IMR-32, 24 h
Description: as §1, §2, §3, §4, §5

human wild type TTR = human wild type TTR (Homo sapiens (Human), UniProt P02766); test: Isothermal titration calorimetry (ITC) of ligands against TTR; type: binding
Description: Calorimetric titrations were carried out on a VP-ITC calorimeter (MicroCal, Northhampton, Mass.). […] Prior to each titration, all samples were degassed for 10 minutes. The initial injection of 3.0 μL was followed by 30 injections of 8.0 μL each (25° C.) to the point that TTR was fully saturated with ligand. Integration of the thermogram after subtraction of blanks yielded a binding isotherm that was analyzed with MicroCal Origin 5.0 software.

[4] = molecular target: wild type biotinylated TTR (Homo sapiens (Human), UniProt P02766); test: Surface plasmon resonance (SPR) assay on immobilized biotinylated TTR; type: binding
Description: To an ice-cold solution of TTR (20 μM) in PBS was added EZ-Link Sulfo-NHS-LC-Biotin at a ratio of ˜2:1 (biotin:TTR) (minimal biotinylation) and the solution was incubated at room temperature. After 1 hour, un-reacted biotin was removed by passing the sample over a fast (FPLC) desalting column (Superdex™ 75) equilibrated with PBS.
SPR measurements were performed at 25° C. using a Biacore T100 (GE Healthcare) instrument equilibrated in 1% DMSO in PBS as a running buffer. After pretreatment of the streptavidin-coated chip (Sensor Chop SA, Biacore), ˜4000 RU biotinylated TTR was immobilized on one channel leaving the second flow channel as a blank (streptavidin alone) control. For binding measurements, HTS hits were diluted in running buffer (1% DMSO/PBS) and different dilution series were flowed over the chip at 50 μL/min ([…], 600 s wash). A zero concentration sample was used as a negative control. The kinetic data was fitted to a one-to-one binding model using Biacore T100 evaluation software.

TTR [5] = molecular target: T1, TTR; test: FP saturation binding experiment; settings: FITC alone
Description: The binding of probe 5 for TTR was evaluated as follows. […] The samples were allowed to equilibrate by agitation for 20 min at room temperature. Fluorescence polarization (excitation λ 485 nm, emission λ 525 nm, Cutoff λ 515 nm) measurements were taken using SpectraMax M5 Microplate Reader (Molecular Devices). […] Nonspecific FP, produced by the free fluorescent probe 5 as well as by binding of 5 to the plate, was equal to 70±10 mP.

Compound	Prevention of TTR-induced cytotoxicity [2]	Prevention of TTR-induced cytotoxicity [3]	also measured
Cc1ccc(Cl)c(Nc2ccccc2C(=O)O)c1Cl	–	–	IC50 (TTR [1]): 0.504 µM; % fibril formation (WT TTR): 3.87 ± 0.93%
O=[N+]([O-])c1cc(O)c(O)c([N+](=O)[O-])c1 [3,5-dinitrocatechol, 3,5-dinitrocatechol, reference compound]	poor inhibitor	poor inhibitor	–
O=C(O)c1ccccc1Nc1cc(Cl)c(OCCOCCOCCNC(=S)Nc2ccc3c(c2)C(=O)OC32c3ccc(O)cc3Oc3cc(O)ccc32)c(Cl)c1 [Compound 5, 2-(3,5-dichloro-4-(2-(2-(2-(3-(3′,6′-dihydroxy-3-oxo-3H-spiro[isobenzofuran-1,9′-xanthene]-5-yl)thioureido)ethoxy)ethoxy)ethoxy)phenylamino)benzoic acid]	–	–	Decrease in binding affinity to TTR relative to 4 (fold) (human wild type TTR): ~3 fold
Cc1n[nH]c(C)c1CCCOc1ccccc1F [Compound 7]	completely prevented	completely prevented	–
CN1C(=N)NC(=O)/C1=C/c1cc(Br)c(O)c(Br)c1 [Compound 14]	completely prevented	completely prevented	–
Cc1n[nH]c(C)c1CCc1nc2c3ccccc3[nH]c(=S)n2n1 [Compound 15]	completely prevented	completely prevented	–
O=C(O)Cc1ccccc1Nc1c(Cl)cccc1Cl [Diclofenac]	–	–	lower target residence time than 7 (fold) [4]: ~40 ×
O=C(O)c1cccnc1Nc1cccc(C(F)(F)F)c1 [Niflumic acid, niflumic acid, reference compound]	relatively poor inhibitor	–	–
O=C(c1cc(O)c(O)c([N+](=O)[O-])c1)c1ccccc1F [Ro 41-0960, reference compound]	completely prevented	completely prevented	–
O=C(O)Cc1ccccc1Nc1c(Cl)cccc1Cl [drawing 78]	–	–	IC50 (TTR [1]): 3.74 µM; % fibril formation (WT TTR): 11.56 ± 0.72%
Fluorescein isothiocyanate [FITC]	–	–	Interaction with TTR (change in FP signal upon addition of TTR) (TTR [5]): no interaction with TTR
